≈ marks a conversion by molar mass, not a printed value.
How the values were obtained:
[1] = Lipophilicity, log D of compound; assay type: physicochemical; conditions: octanol/water
[2] = Cmax in mouse at 10 mg/kg, po; assay type: ADME, organism-based; set-up: route oral, dose 10 mg/kg; conditions: in vivo
[3] = AUC (0 to infinity) in mouse at 10 mg/kg, po; assay type: ADME, organism-based; set-up: time infinity, route oral, dose 10 mg/kg; conditions: in vivo
[4] = biological target: T1, Histone-lysine N-methyltransferase EHMT1 (Homo sapiens, UniProt Q9H9B1); test: Inhibition of GLP (unknown origin)
T1 sequence (Q9H9B1 whole entry): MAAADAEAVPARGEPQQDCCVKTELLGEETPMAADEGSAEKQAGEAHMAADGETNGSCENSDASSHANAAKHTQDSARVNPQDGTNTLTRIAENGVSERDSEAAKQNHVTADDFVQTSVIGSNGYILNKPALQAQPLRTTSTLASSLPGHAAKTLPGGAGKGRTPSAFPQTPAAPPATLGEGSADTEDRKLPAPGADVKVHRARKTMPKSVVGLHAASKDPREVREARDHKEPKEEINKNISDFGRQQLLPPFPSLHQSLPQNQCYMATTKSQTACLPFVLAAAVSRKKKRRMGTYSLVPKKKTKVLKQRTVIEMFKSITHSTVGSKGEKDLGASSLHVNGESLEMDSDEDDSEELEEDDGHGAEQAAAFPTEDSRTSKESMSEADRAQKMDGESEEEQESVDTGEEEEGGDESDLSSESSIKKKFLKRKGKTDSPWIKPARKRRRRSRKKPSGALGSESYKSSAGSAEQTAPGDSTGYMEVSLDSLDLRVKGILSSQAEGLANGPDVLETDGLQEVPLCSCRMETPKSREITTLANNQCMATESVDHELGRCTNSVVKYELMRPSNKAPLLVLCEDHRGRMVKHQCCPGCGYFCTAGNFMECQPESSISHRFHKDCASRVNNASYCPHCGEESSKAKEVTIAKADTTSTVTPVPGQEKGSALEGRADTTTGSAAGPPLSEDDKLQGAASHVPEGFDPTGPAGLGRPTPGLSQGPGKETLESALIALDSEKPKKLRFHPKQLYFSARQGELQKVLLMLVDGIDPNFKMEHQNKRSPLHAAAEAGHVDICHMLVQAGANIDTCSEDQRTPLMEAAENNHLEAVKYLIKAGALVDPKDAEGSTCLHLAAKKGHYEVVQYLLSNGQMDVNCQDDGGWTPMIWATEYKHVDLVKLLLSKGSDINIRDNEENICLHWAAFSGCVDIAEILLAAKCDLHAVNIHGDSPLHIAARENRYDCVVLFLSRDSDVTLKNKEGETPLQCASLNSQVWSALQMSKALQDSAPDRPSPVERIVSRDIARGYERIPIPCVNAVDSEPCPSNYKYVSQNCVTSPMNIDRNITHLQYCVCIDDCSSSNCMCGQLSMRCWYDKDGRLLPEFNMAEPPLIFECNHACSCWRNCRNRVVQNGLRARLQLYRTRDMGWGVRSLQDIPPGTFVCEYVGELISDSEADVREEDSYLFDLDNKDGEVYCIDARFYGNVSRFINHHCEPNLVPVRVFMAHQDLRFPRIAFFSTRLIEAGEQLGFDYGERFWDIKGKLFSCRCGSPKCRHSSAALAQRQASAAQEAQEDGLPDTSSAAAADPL

[5] = Aqueous solubility of the compound in pH 6.8 JP2 fluid; assay type: physicochemical
CYP1A2 = biological target: T2, CYP1A2 (Homo sapiens, UniProt P05177); test: Inhibition of CYP1A2 (unknown origin) at 10 uM relative to control; assay type: ADME
T2 sequence (P05177 whole entry): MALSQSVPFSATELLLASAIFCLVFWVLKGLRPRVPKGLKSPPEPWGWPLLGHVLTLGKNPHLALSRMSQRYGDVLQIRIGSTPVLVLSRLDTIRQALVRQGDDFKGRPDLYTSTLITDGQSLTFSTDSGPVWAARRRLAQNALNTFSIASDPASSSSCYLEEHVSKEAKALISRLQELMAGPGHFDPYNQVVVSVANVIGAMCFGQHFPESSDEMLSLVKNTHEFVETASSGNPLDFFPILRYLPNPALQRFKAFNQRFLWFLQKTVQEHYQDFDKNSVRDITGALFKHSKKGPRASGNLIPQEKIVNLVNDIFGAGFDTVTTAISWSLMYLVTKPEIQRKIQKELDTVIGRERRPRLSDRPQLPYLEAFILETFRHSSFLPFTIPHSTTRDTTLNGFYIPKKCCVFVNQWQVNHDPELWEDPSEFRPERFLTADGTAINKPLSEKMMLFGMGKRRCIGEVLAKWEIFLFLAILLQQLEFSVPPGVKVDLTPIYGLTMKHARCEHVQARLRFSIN

CYP2D6 = CYP2D6 (Homo sapiens, UniProt P10635); test: Inhibition of CYP2D6 (unknown origin) at 10 uM relative to control; assay type: ADME
Chain of CYP2D6 (P10635 whole entry): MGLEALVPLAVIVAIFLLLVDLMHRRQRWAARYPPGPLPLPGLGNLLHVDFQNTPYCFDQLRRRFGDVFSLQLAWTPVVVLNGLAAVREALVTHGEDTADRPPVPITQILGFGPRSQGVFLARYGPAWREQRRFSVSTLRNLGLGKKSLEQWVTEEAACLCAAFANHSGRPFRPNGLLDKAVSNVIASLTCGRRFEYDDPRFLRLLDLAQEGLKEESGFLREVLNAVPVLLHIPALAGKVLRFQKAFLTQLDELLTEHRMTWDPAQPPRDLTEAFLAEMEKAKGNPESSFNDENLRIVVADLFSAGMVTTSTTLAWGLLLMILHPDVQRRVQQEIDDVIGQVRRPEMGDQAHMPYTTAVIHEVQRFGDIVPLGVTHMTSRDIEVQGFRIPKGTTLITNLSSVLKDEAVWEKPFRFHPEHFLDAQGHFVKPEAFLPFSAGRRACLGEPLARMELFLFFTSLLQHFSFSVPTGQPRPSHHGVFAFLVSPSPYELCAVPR

[6] = Metabolic stability in mouse liver microsomes assessed as compound remaining at 0.5 mg/mL incubated for 0.5 hrs; assay type: ADME, Microsome; conditions: read-out: Stabilty
[7] = Intrinsic clearance in mouse at 1 mg/kg, iv; assay type: ADME, organism-based; conditions: in vivo
[8] = Half-life in mouse at 1 mg/kg, iv; assay type: ADME, organism-based; conditions: in vivo

SMILES	logD [1]	Cmax [2] [nM]	AUC(0-inf) [3] [µM·h]	IC50 [4] [nM]	solubility [5] [µg/mL]	inhibition at 10 µM (CYP1A2) [%]	inhibition at 10 µM (CYP2D6) [%]	remaining at 0.5 h [6] [%]	CL [7] [mL/min/kg]	half-life [8] [min]
CNc1cc(C)nc(Nc2ccc(OC)c(C3=CCNCCC3)c2)n1	0.5	450	3.15	32.3	640 (≈ 1890 µM)	0	3	34	62.9	420
CNc1cc(C)nc(Nc2ccc(OC)c(OCCCN3CCCC3)c2)n1	0.8	220	2.86	185	590 (≈ 1590 µM)	5	8	48	27.4	240

Reference: ChEMBL document CHEMBL4725338, “Discovery of novel histone lysine methyltransferase G9a/GLP (EHMT2/1) inhibitors: Design, synthesis, and structure-activity relationships of 2,4-diamino-6-methylpyrimidines” (Bioorg Med Chem Lett, 2020)
